Numbered stars: 1 amine (or outer) side, 2 acyl side, 3 side chain; on linkers, the order of the positions; unused ones are H or OH. Bridge positions count the residues as written; N and C are the ends. Square brackets hold non-standard residues; d marks the D form. Peptide text beside a SMILES is read from it. Trp(7-Me) = Cc1cccc2c(C[C@H](N)C(=O)O)c[nH]c12; Trp(2-Me) = Cc1[nH]c2ccccc2c1C[C@H](N)C(=O)O; Abu(4-yl) = O=C([C@H](CC[*:3])N[*:1])[*:2]; 2Nal = N[C@@H](Cc1ccc2ccccc2c1)C(=O)O; AEF = NCCOc1ccc(C[C@H](N)C(=O)O)cc1; αMeF = C[C@](N)(Cc1ccccc1)C(=O)O; Cit = NC(=O)NCCC[C@H](N)C(=O)O; Pen = CC(C)(S)[C@H](N)C(=O)O; αMeK = C[C@](N)(CCCCN)C(=O)O; Aib = CC(C)(N)C(=O)O; Sar = CNCC(=O)O Where only a bound is given, the exact number is not on record here.

One experiment addresses T1, IL-23R (Homo sapiens, UniProt Q5VWK5).
T1 sequence (Q5VWK5 24-629): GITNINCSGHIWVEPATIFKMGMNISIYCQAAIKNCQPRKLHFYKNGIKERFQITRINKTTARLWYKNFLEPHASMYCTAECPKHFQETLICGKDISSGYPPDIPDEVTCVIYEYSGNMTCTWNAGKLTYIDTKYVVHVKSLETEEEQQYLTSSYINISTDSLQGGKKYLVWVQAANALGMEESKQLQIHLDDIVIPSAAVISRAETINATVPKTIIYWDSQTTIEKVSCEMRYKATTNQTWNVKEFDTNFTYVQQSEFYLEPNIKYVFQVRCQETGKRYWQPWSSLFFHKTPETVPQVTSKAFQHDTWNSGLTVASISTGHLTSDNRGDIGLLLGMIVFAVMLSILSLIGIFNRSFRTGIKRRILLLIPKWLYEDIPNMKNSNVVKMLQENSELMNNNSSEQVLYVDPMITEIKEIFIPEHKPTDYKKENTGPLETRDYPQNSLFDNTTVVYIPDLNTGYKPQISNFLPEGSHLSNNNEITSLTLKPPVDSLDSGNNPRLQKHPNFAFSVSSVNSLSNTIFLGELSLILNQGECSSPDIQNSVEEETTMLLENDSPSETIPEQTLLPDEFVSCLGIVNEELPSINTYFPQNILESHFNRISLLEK
In words: DB cells IL23R pSTAT3 cell assay (pStat3 HTRF). The class given is cell-based.
Conditions: not given
The text has this:
Human ELISA indicates the IL23-IL23R competitive binding assay described below, Rat ELISA indicates the rat IL-23R competitive binding ELISA assay described below, and pStat3HTRF indicates the DB cells IL-23R pSTAT3 cell assay described below. The peptides depicted in Table E1 are cyclized via a disulfide bridge formed between two Pen residues in these peptides. The peptides depicted in Table E2 are cyclized via a thioether bond between the indicated amino acid residues. Table E2 provides an illustrative structure depicting thioether cyclization, which is indicated in the table by the term “cyclo,” with the cyclic region bracketed immediately following the term “cyclo.” For certain peptides, the residue Abu is present where indicated, whereas in other embodiments, e.g., those related to the non-cyclized form, the Abu may be referred to as a hSer(Cl) or homoSer residue.
DB Cells IL23R pSTAT3 Cell Assay
IL-23 plays a central role in supporting and maintaining Th17 differentiation in vivo. This process is thought to be mediated primarily through the Signal Transducer and Activator of Transcription 3 (STAT3), with phosphorylation of STAT3 (to yield pSTAT3) leading to upregulation of RORC and pro-inflammatory IL-17. This cell assay examines the levels of pSTAT3 in IL-23R-expressing DB cells when stimulated with IL-23 in the presence of test compounds. Serial dilutions of test peptides and IL-23 (Humanzyme #HZ-1261) at a final concentration of 0.5 nM, were added to each well in a 96 well tissue culture plate (Corning #CLS3894). DB cells (ATCC #CRL-2289), cultured in RPMI-1640 medium (Thermo Scientific #11875093) supplemented with 10% FBS, were added at 5×10E5 cells/well and incubated for 30 minutes at 37° C. in a 5% CO2 humidified incubator. Changes in phospho-STAT3 levels in the cell lysates were detected using the Cisbio HTRF pSTAT3 (Tyr705) Cellular Assay Kit (Cisbio #62AT3PEH), according to manufacturer's Two Plate Assay protocol.
(Time-resolved FRET reads energy transfer from a long-lived donor to a nearby acceptor.)
In general, IC50 refers to the concentration needed to halve the response being measured. Molecule `CC(=O)NCCCC[C@@H]1NC(=O)[C@H](Cc2c[nH]c3c(C)cccc23)NC(=O)[C@H]([C@@H](C)O)NC(=O)[C@H](CC(N)=O)NC(=O)[C@@H](NC(C)=O)C(C)(C)SSC(C)(C)[C@@H](C(=O)N[C@@H](Cc2ccc(OCCN)cc2)C(=O)N[C@@H](Cc2ccc3ccccc3c2)C(=O)N[C@@](C)(CCCCN)C(=O)N[C@@H](CCCCNC(C)=O)C(=O)N[C@@H](CO)C(=O)N[C@H](CCCCN)C(N)=O)NC1=O` [compound 352] gave an IC50 of 1 to 10 nM.
On the same count and under the same terms, the result for `COc1cccc2[nH]cc(C[C@H](NC(=O)[C@H](Cc3ccc(OCCN)cc3)NC(=O)[C@H]3NC(=O)[C@H](CCC(N)=O)NC(=O)[C@H](Cc4c[nH]c5ccccc45)NC(=O)[C@H]([C@@H](C)O)NC(=O)[C@H](CC(N)=O)NC(=O)[C@@H](NC(C)=O)C(C)(C)SSC3(C)C)C(=O)N[C@@](C)(CC(C)C)C(=O)N[C@@H](CCCCNC(C)=O)C(=O)N[C@@H](CC(N)=O)C(=O)N[C@@H](CC(N)=O)C(N)=O)c12` [compound 15] reads more than 100 nM; that for `COc1ccc2[nH]cc(C[C@@H]3NC(=O)[C@H]([C@@H](C)O)NC(=O)[C@H](CC(N)=O)NC(=O)[C@@H](NC(C)=O)C(C)(C)SSC(C)(C)[C@@H](C(=O)N[C@@H](Cc4ccc(OCCN)cc4)C(=O)N[C@@H](Cc4ccc5ccccc5c4)C(=O)N[C@@](C)(CC(C)C)C(=O)N[C@@H](CCCCNC(C)=O)C(=O)N[C@@H](CC(N)=O)C(=O)N[C@@H](CC(N)=O)C(N)=O)NC(=O)[C@H](CCC(N)=O)NC3=O)c2c1` [compound 9], more than 100 nM.
The same measure, in the same setting: the figure for `CC(=O)NCCCC[C@H](NC(=O)C1(NC(=O)[C@H](Cc2ccc3ccccc3c2)NC(=O)[C@H](Cc2ccc(OCCN)cc2)NC(=O)[C@@H]2CSCC[C@H](NC(C)=O)C(=O)N[C@@H](CCC(N)=O)C(=O)N[C@@H]([C@@H](C)O)C(=O)N[C@@H](Cc3c[nH]c4c(C)cccc34)C(=O)N[C@@H](CCC(N)=O)C(=O)N2)CCOCC1)C(=O)N[C@@H](CC(N)=O)C(=O)N[C@@H](CC(N)=O)C(N)=O` [compound 30] is 1 to 10 nM; for `COc1ccc2[nH]cc(C[C@H](NC(=O)[C@H](Cc3ccc(OCCN)cc3)NC(=O)[C@H]3NC(=O)[C@H](CCC(N)=O)NC(=O)[C@H](Cc4c[nH]c5ccccc45)NC(=O)[C@H]([C@@H](C)O)NC(=O)[C@H](CC(N)=O)NC(=O)[C@@H](NC(C)=O)C(C)(C)SSC3(C)C)C(=O)N[C@@](C)(CC(C)C)C(=O)N[C@@H](CCCCNC(C)=O)C(=O)N[C@@H](CC(N)=O)C(=O)N[C@@H](CC(N)=O)C(N)=O)c2c1` [compound 20] it is 10 to 100 nM; for `CC(=O)NCCCC[C@H](NC(=O)[C@](C)(CC(C)C)NC(=O)[C@H](Cc1c[nH]c2c(F)cccc12)NC(=O)[C@H](Cc1ccc(OCCN)cc1)NC(=O)[C@H]1NC(=O)[C@H](CCC(N)=O)NC(=O)[C@H](Cc2c[nH]c3ccccc23)NC(=O)[C@H]([C@@H](C)O)NC(=O)[C@H](CC(N)=O)NC(=O)[C@@H](NC(C)=O)C(C)(C)SSC1(C)C)C(=O)N[C@@H](CC(N)=O)C(=O)N[C@@H](CC(N)=O)C(N)=O` [compound 19] it is 10 to 100 nM.
The same measure, in the same setting: the figure for `CC(=O)NCCCC[C@H](NC(=O)[C@](C)(CC(C)C)NC(=O)[C@H](Cc1c[nH]c2cc(C)ccc12)NC(=O)[C@H](Cc1ccc(OCCN)cc1)NC(=O)[C@H]1NC(=O)[C@H](CCC(N)=O)NC(=O)[C@H](Cc2c[nH]c3ccccc23)NC(=O)[C@H]([C@@H](C)O)NC(=O)[C@H](CC(N)=O)NC(=O)[C@@H](NC(C)=O)C(C)(C)SSC1(C)C)C(=O)N[C@@H](CC(N)=O)C(=O)N[C@@H](CC(N)=O)C(N)=O` [compound 16] is 1 to 10 nM.

Staying with this experiment, now noted: Table E3; DB cells, IL-23 0.5 nM, 30 minutes at 37° C.; read-out: pStat3 HTRF (IC50).
As to `CC(=O)NCCCC[C@H](NC(=O)[C@](C)(CCCCN)NC(=O)[C@H](Cc1ccc2ccccc2c1)NC(=O)[C@H](Cc1ccc(OCCN)cc1)NC(=O)[C@H]1NC(=O)[C@H](CCCNC(N)=O)NC(=O)[C@H](Cc2c[nH]c3c(C)cccc23)NC(=O)[C@H]([C@@H](C)O)NC(=O)[C@H](CC(N)=O)NC(=O)[C@@H](NC(C)=O)C(C)(C)SSC1(C)C)C(=O)N[C@@H](CC(N)=O)C(=O)NC(C)(C)C(=O)NCC(N)=O` [compound 341] (Ac-[Pen]NT[Trp(7-Me)][Cit][Pen][AEF][2Nal][αMeK]K(Ac)N[Aib]G-NH2; disulfide 1-6), the IC50 is less than 1 nM.
In the case of `CC(=O)N[C@H](CCCNC(=N)N)C(=O)N[C@H]1CCSC[C@@H](C(=O)N[C@@H](Cc2ccc(OCCN)cc2)C(=O)N[C@@H](Cc2ccc3ccccc3c2)C(=O)NC2(C(=O)N[C@@H](CCC(=O)O)C(=O)N[C@@H](CC(N)=O)C(=O)NCCC(N)=O)CCOCC2)NC(=O)[C@H](CCC(N)=O)NC(=O)[C@H](Cc2c[nH]c3c(C)cccc23)NC(=O)[C@H]([C@@H](C)O)NC(=O)[C@H](CCC(N)=O)NC1=O` [compound 203], the IC50 is 1 to 10 nM.
As for `CC(=O)NCCCC[C@H](NC(=O)[C@](C)(CCCCN)NC(=O)[C@H](Cc1ccc2ccccc2c1)NC(=O)[C@H](Cc1ccc(OCCN)cc1)NC(=O)[C@H]1NC(=O)[C@H](CCCNC(N)=O)NC(=O)[C@H](Cc2c[nH]c3c(C)cccc23)NC(=O)[C@H]([C@@H](C)O)NC(=O)[C@H](CC(N)=O)NC(=O)[C@@H](NC(C)=O)C(C)(C)SSC1(C)C)C(=O)N[C@@H](CC(N)=O)C(=O)N(C)CC(N)=O` [compound 339] (Ac-[Pen]NT[Trp(7-Me)][Cit][Pen][AEF][2Nal][αMeK]K(Ac)N[Sar]-NH2; disulfide 1-6), the IC50 fell in the range of 1 to 10 nM.
Consider `CC(=O)NCCCC[C@@H]1NC(=O)[C@H](Cc2c[nH]c3c(C)cccc23)NC(=O)[C@H]([C@@H](C)O)NC(=O)[C@H](CCC(N)=O)NC(=O)[C@@H](NC(=O)[C@@H](CCCNC(=N)N)NC(C)=O)CCSC[C@@H](C(=O)N[C@@H](Cc2ccc(OCCN)cc2)C(=O)N[C@@H](Cc2ccc3ccccc3c2)C(=O)N[C@@](C)(CCCCN)C(=O)N[C@@H](CCCCNC(C)=O)C(=O)N[C@@H](CC(N)=O)C(=O)N[C@@](C)(Cc2ccccc2)C(N)=O)NC1=O` [compound 327] (Ac-[dR][Abu(4-yl)]QT[Trp(7-Me)]K(Ac)C[AEF][2Nal][αMeK]K(Ac)N[αMeF]-NH2; thioether 2-7), for which the IC50 is 10 to 100 nM.
Same read-out and setting: the result for `CC(=O)NCCCC[C@H](NC(=O)[C@](C)(CCCCN)NC(=O)[C@H](Cc1ccc2ccccc2c1)NC(=O)[C@H](Cc1ccc(OCCN)cc1)NC(=O)[C@H]1NC(=O)[C@H](CCCNC(N)=O)NC(=O)[C@H](Cc2c[nH]c3c(C)cccc23)NC(=O)[C@H]([C@@H](C)O)NC(=O)[C@H](CC(N)=O)NC(=O)[C@@H](NC(C)=O)C(C)(C)SSC1(C)C)C(=O)N[C@@H](CC(N)=O)C(=O)NC(C)(C)C(=O)N[C@H](CCCCN)C(N)=O` [compound 344] (Ac-[Pen]NT[Trp(7-Me)][Cit][Pen][AEF][2Nal][αMeK]K(Ac)N[Aib][dK]-NH2; disulfide 1-6) reads less than 1 nM; that for `CC(=O)NCCCC[C@@H]1NC(=O)[C@H](Cc2c[nH]c3c(C)cccc23)NC(=O)[C@H]([C@@H](C)O)NC(=O)[C@H](CC(N)=O)NC(=O)[C@@H](NC(C)=O)C(C)(C)SSC(C)(C)[C@@H](C(=O)N[C@@H](Cc2ccc(OCCN)cc2)C(=O)N[C@@H](Cc2c(C)[nH]c3ccccc23)C(=O)N[C@@](C)(CCCCN)C(=O)N[C@@H](CCCCNC(C)=O)C(=O)N[C@@H](CC(N)=O)C(=O)N[C@H](CCCCN)C(N)=O)NC1=O` [compound 353] (Ac-[Pen]NT[Trp(7-Me)]K(Ac)[Pen][AEF][Trp(2-Me)][αMeK]K(Ac)N[dK]-NH2; disulfide 1-6), less than 1 nM.
On the same count and under the same terms, the figure for `CC(=O)NCCCC[C@H](NC(=O)[C@](C)(CCCCN)NC(=O)[C@H](Cc1ccc2ccccc2c1)NC(=O)[C@H](Cc1ccc(OCCN)cc1)NC(=O)[C@H]1NC(=O)[C@H](CCC(N)=O)NC(=O)[C@H](Cc2c[nH]c3ccc(C#N)cc23)NC(=O)[C@H]([C@@H](C)O)NC(=O)[C@H](CC(N)=O)NC(=O)[C@@H](NC(C)=O)C(C)(C)SSC1(C)C)C(=O)N[C@@H](CC(N)=O)C(=O)N[C@H](CCCCN)C(N)=O` [compound 296] is 1 to 10 nM.

(Values after patent US20260116921A1, “PEPTIDE INHIBITORS OF INTERLEUKIN-23 RECEPTOR AND THEIR USE TO TREAT INFLAMMATORY DISEASES” (priority 2018, published 2026).)
